Measured values published in patent publication US20050124562A1, “Bis-quinazoline compounds for the treatment of bacterial infections” (priority 2003, published 2005).

Legend:
Type in all cases: cell-based
[1] = tested on: S. aureus, E. faecalis, S. pyogenes and S. pneumoniae; experiment: Broth microdilution MIC (NCCLS), gram-positive strains; details: range against some strains of S. aureus, E. faecalis, S. pyogenes and S. pneumoniae; read-out: MIC
Outline: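 MICs by broth microdilution per NCCLS M-7 A-6 against ATCC strains, including ORSA and VRE; MBCs determined for selected organisms. Serum effect assessed by repeating MIC tests with human serum present.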

[2] = tested on: M. catarrhalis; experiment: Broth microdilution MIC (NCCLS), M. catarrhalis; details: Moraxella catarrhalis; some strains of M. catarrhalis; read-out: MIC range
Experimental: (§1) Representative bis-quinazolines were tested for antibacterial activity using the […] microdilution method to determine their minimum inhibitory concentrations (MICs). All compounds were tested using standard methods in accordance with NCCLS guidelines (National Committee for Clinical Laboratory Standards. 2003. Methods for dilution antimicrobial susceptibility testing for bacteria that grow aerobically. Approved Standard M-7 A-6, NCCLS, Wayne, Pa.). The bacterial strains used in the susceptibility tests were obtained from the American Type Culture Collection (ATCC) and included resistant phenotypes such as oxacillin-resistant S. aureus (ORSA) and vancomycin-resistant enterococci (VRE). The minimum bactericidal concentrations (MBCs) were determined for selected organisms. The effect of protein binding on the antibacterial activity of representative bis-quinazolines were determined by conducting MIC tests in the presence of human serum.

[3] = tested on: H. influenzae; experiment: Broth microdilution MIC (NCCLS), H. influenzae; details: Haemophilus influenzae; some strains of H. influenzae
Experimental: as §1

[4] = tested on: efflux mutants of E. coli; experiment: Broth microdilution MIC (NCCLS), E. coli efflux mutants; details: Escherichia coli, read-out: MICs
Experimental: as §1

[5] = tested on: efflux mutants of P. aeruginosa; experiment: Broth microdilution MIC (NCCLS), P. aeruginosa efflux mutants; details: Pseudomonas aeruginosa, read-out: MICs
Experimental: as §1

| Structure (SMILES) | MIC [1] [µg/mL] | MIC [2] [µg/mL] | MIC [3] [µg/mL] | MIC [4] [µg/mL] | MIC [5] [µg/mL] |
| --- | --- | --- | --- | --- | --- |
| COCCOc1ccc2nc(Nc3nc(O)c4c(OC)cccc4n3)nc(C)c2c1.O=C(O)C(F)(F)F [Example 88, 5-Methoxy-2-[6-(2-methoxy-ethoxy)-4-methyl-quinazolin-2-ylamino]-quinazolin-4-ol trifluoroacetate salt] | 0.06 to 16 | 2 to 64 | 16 to 32 | 16 to 64 | 64 |
| COCCOc1cc2nc(Nc3nc(O)c4cccc(OC)c4n3)nc(C)c2cc1OCCOC.O=C(O)C(F)(F)F [Example 89, 2-[6,7-Bis-(2-methoxy-ethoxy)-4-methyl-quinazolin-2-ylamino]-8-methoxy-quinazolin-4-ol trifluoroacetate salt] | 0.06 to 16 | 2 to 64 | 16 to 32 | 16 to 64 | 64 |
| COc1cc2nc(Nc3nc(O)c4c(OC)cccc4n3)nc(CF)c2cc1OC.O=C(O)C(F)(F)F [Example 90, 2-(4-Fluoromethyl-6,7-dimethoxy-quinazolin-2-ylamino)-5-methoxy-quinazolin-4-ol trifluoroacetate salt] | 0.06 to 16 | 2 to 64 | 16 to 32 | 16 to 64 | 64 |
| COc1cccc2c(O)nc(Nc3nc(C)c4c(OC)ccc(C)c4n3)nc12.O=C(O)C(F)(F)F [Example 91, 8-Methoxy-2-(5-methoxy-4,8-dimethyl-quinazolin-2-ylamino)-quinazolin-4-ol trifluoroacetate salt] | 0.06 to 16 | 2 to 64 | 16 to 32 | 16 to 64 | 64 |
| COc1cc2c(C)nc(Nc3nc(O)c4c(OC)cccc4n3)nc2cc1F.O=C(O)C(F)(F)F [Example 94, 2-(7-Fluoro-6-methoxy-4-methyl-quinazolin-2-ylamino)-5-methoxy-quinazolin-4-ol trifluoroacetate salt] | 0.06 to 16 | 2 to 64 | 16 to 32 | 16 to 64 | 64 |
| COc1ccc(OC)c2c(O)nc(Nc3nc(C)c4ccc5c(c4n3)OCCO5)nc12.O=C(O)C(F)(F)F [Example 95, 5,8-Dimethoxy-2-(8-methyl-2,3-dihydro-1,4-dioxa-5,7-diaza-phenanthren-6-ylamino)-quinazolin-4-ol trifluoroacetate salt] | 0.06 to 16 | 2 to 64 | 16 to 32 | 16 to 64 | 64 |
| COc1cc2nc(Nc3nc(O)c4cccc(F)c4n3)nc(C)c2cc1OC.O=C(O)C(F)(F)F [Example 96, 2-(6,7-Dimethoxy-4-methyl-quinazolin-2-ylamino)-8-fluoro-quinazolin-4-ol trifluoroacetate salt] | 0.06 to 16 | 2 to 64 | 16 to 32 | 16 to 64 | 64 |
| CCOc1cccc2c(O)nc(Nc3nc(C)c4cc(OC)c(OC)cc4n3)nc12.O=C(O)C(F)(F)F [Example 97, 2-(6,7-Dimethoxy-4-methyl-quinazolin-2-ylamino)-8-ethoxy-quinazolin-4-ol trifluoroacetate salt] | 0.06 to 16 | 2 to 64 | 16 to 32 | 16 to 64 | 64 |
| COc1cc(OC)c2nc(Nc3nc(O)c4cccc(F)c4n3)nc(C)c2c1.O=C(O)C(F)(F)F [Example 98, 2-(6,8-Dimethoxy-4-methyl-quinazolin-2-ylamino)-8-fluoro-quinazolin-4-ol trifluoroacetate salt] | 0.06 to 16 | 2 to 64 | 16 to 32 | 16 to 64 | 64 |
| COc1cc2nc(Nc3nc(O)c4c(OC)ccc(OC)c4n3)nc(C)c2cc1OC.O=C(O)C(F)(F)F [Example 99, 2-(6,7-Dimethoxy-4-methyl-quinazolin-2-ylamino)-5,8-dimethoxy-quinazolin-4-ol trifluoroacetate salt] | 0.06 to 16 | 2 to 64 | 16 to 32 | 16 to 64 | 64 |
| COCCOc1ccc2nc(Nc3nc(C)c4cc(OC)c(OC)cc4n3)nc(O)c2c1.O=C(O)C(F)(F)F [Example 102, 2-(6,7-Dimethoxy-4-methyl-quinazolin-2-ylamino)-6-(2-methoxy-ethoxy)-quinazolin-4-ol trifluoroacetate salt] | 0.06 to 16 | 2 to 64 | 16 to 32 | 16 to 64 | 64 |
| COc1cc2c(C)nc(Nc3nc(O)c4cccc(F)c4n3)nc2cc1O.O=C(O)C(F)(F)F [Example 104, 2-(8-Fluoro-4-hydroxy-quinazolin-2-ylamino)-6-methoxy-4-methyl-quinazolin-7-ol trifluoroacetate salt] | 0.06 to 16 | 2 to 64 | 16 to 32 | 16 to 64 | 64 |
| Cc1nc(Nc2nc(O)c3cccc(F)c3n2)nc2cc3c(cc12)OCCO3.O=C(O)C(F)(F)F [Example 108, 8-Fluoro-2-(4-methyl-7,8-dihydro-[1,4]dioxino[2,3-g]quinazolin-2-ylamino)-quinazolin-4-ol trifluoroacetate salt] | 0.06 to 16 | 2 to 64 | 16 to 32 | 16 to 64 | 64 |
| CCN(CC)CCOc1ccc2nc(Nc3nc(O)c4cccc(OC)c4n3)nc(C)c2c1.O=C(O)C(F)(F)F [Example 115, 2-[6-(2-Diethylamino-ethoxy)-4-methyl-quinazolin-2-ylamino]-8-methoxy-quinazolin-4-ol trifluoroacetate salt] | 0.06 to 16 | 2 to 64 | 16 to 32 | 16 to 64 | 64 |
| COc1cc2nc(Nc3nc(O)c4cc(N)cc(C)c4n3)nc(C)c2cc1OC.O=C(O)C(F)(F)F [Example 120, 6-Amino-2-(6,7-dimethoxy-4-methyl-quinazolin-2-ylamino)-8-methyl-quinazolin-4-ol trifluoroacetate salt] | 0.06 to 16 | 2 to 64 | 16 to 32 | 16 to 64 | 64 |
| COc1cc2nc(Nc3nc(O)c4cc(N(C)C)cc(C)c4n3)nc(C)c2cc1OC.O=C(O)C(F)(F)F [Example 121, 2-(6,7-Dimethoxy-4-methyl-quinazolin-2-ylamino)-6-dimethylamino-8-methyl-quinazolin-4-ol trifluoroacetate salt] | 0.06 to 16 | 2 to 64 | 16 to 32 | 16 to 64 | 64 |
| CCN(CC)CCOc1ccc2nc(Nc3nc(O)c4cc(N)cc(C)c4n3)nc(C)c2c1.O=C(O)C(F)(F)F [Example 125, 6-Amino-2-[6-(2-diethylamino-ethoxy)-4-methyl-quinazolin-2-ylamino]-8-methyl-quinazolin-4-ol trifluoroacetate salt] | 0.06 to 16 | 2 to 64 | 16 to 32 | 16 to 64 | 64 |
| COc1cccc2c(C)nc(Nc3nc(O)c4cc(OCCN5CCC(O)C5)ccc4n3)nc12.O=C(O)C(F)(F)F (centres unmarked) [Example 138, 6-[2-(3-Hydroxy-pyrrolidin-1-yl)-ethoxy]-2-(8-methoxy-4-methyl-quinazolin-2-ylamino)-quinazolin-4-ol trifluoroacetate salt] | 0.06 to 16 | 2 to 64 | 16 to 32 | 16 to 64 | 64 |
| COc1cc(OC)c2nc(Nc3nc(O)c4cc(OCCN(C)CCO)ccc4n3)nc(C)c2c1.O=C(O)C(F)(F)F [Example 140, 2-(6,8-Dimethoxy-4-methyl-quinazolin-2-ylamino)-6-{2-[(2-hydroxy-ethyl)-methyl-amino]-ethoxy}-quinazolin-4-ol trifluoroacetate salt] | 0.06 to 16 | 2 to 64 | 16 to 32 | 16 to 64 | 64 |
| COc1cc2nc(Nc3nc(O)c4cc(OCCNC(CO)C(C)C)ccc4n3)nc(C)c2cc1OC.O=C(O)C(F)(F)F (centres unmarked) [Example 142, 2-(6,7-Dimethoxy-4-methyl-quinazolin-2-ylamino)-6-[2-(1-hydroxymethyl-2-methyl-propylamino)-ethoxy]-quinazolin-4-ol Trifluoroacetate salt] | 0.06 to 16 | 2 to 64 | 16 to 32 | 16 to 64 | 64 |
| COc1cc(OC)c2nc(Nc3nc(O)c4cc(OCCNC(C)CO)ccc4n3)nc(C)c2c1.O=C(O)C(F)(F)F (centres unmarked) [Example 143, 2-(6,8-Dimethoxy-4-methyl-quinazolin-2-ylamino)-6-[2-(2-hydroxy-1-methyl-ethylamino)-ethoxy]-quinazolin-4-ol trifluoroacetate salt] | 0.06 to 16 | 2 to 64 | 16 to 32 | 16 to 64 | 64 |
| CCN(CC)CCOc1ccc2nc(Nc3nc(C)c4cc(OC)cc(OC)c4n3)nc(O)c2c1.O=C(O)C(F)(F)F [Example 144, 6-(2-Diethylamino-ethoxy)-2-(6,8-dimethoxy-4-methyl-quinazolin-2-ylamino)-quinazolin-4-ol trifluoroacetate salt] | 0.06 to 16 | 2 to 64 | 16 to 32 | 16 to 64 | 64 |
